We go through 1 compound from US20240109855A1, “ANTI-QUORUM SENSING, ANTI-BIOFILM, AND INFLAMMATION ATTENUATING COMPOUNDS, COMPOSITIONS, AND METHODS OF USING SAME” (priority 2021, published 2024).

SMILES strings stand for the structures. “Also recorded” adds a separate entry of the source.

Assay [1] has as its system Chromobacterium violaceum (CV026). The assay can be described thus: Quorum sensing inhibition test with bio-reporter CV026 (TLC overlay). For Degree of QSI of CV026: key: −: no inhibition; +: low inhibition; ++: medium inhibition; +++: strong inhibition. It is filed as cell-based. Put shortly: (§1)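 Compounds (40 mM in acetonitrile, 20 μl) were spotted on TLC and overlaid with soft agar reporter cultures, incubated overnight at 30 °C. CV026 was in LB with 500 nM 3-oxo-C6 (purple pigment), and KYC55 was in AT medium with 5 nM 3-oxo-C8 and 60 μg/ml X-gal (blue). Inhibition zone diameter was measured.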

The test system of assay [2] is Agrobacterium tumefaciens (KYC55). The assay can be described thus: Quorum sensing inhibition test with bio-reporter KYC55 (TLC overlay). For Degree of QSI of KYC55: key: −: no inhibition; +: low inhibition; ++: medium inhibition; +++: strong inhibition. It is filed as cell-based. In a few lines: as §1
In assay [3] the test system is Bacillus subtilis. The assay can be described thus: Diffusion discs test, Bacillus subtilis. The settings on record: discs with 40 mM of compound in 20 μl solvent. It is filed as cell-based. Details: key: —: no activity. The method, then: (§2) All derivatives were dissolved in acetonitrile to a final concentration of 40 mM. Twenty (20) μl were loaded onto Whatman filter paper discs and dried. Bacillus subtilis, Staphylococcus aureus, and Acinetobacter baumannii were grown in LB (Lenox) O.N. One hundred (100) μl from the starter culture was plated on LB agar (Miller) dishes. Streptococcus sobrinus, and Streptococcus mutans grown in Brain Heary Infusion (BHI, Himedia) O.N. were similarly plated on BHI agar dishes. Discs were laid and incubated O.N. in 37° C. and the diameter of inhibition of bacterial growth was measured.

Assay [4] concerns Staphylococcus aureus. Briefly: Diffusion discs test, Staphylococcus aureus. Type of assay: cell-based. The protocol: as §2
Assay [5] has as its system Streptococcus sobrinus. Briefly: Diffusion discs test, Streptococcus sobrinus. Type of assay: cell-based. Details: key: —: no activity. The settings on record: discs with 40 mM of compound in 20 μl solvent. The protocol:
as §2

In assay [6] the test system is Streptococcus mutans. The assay can be described thus: Diffusion discs test, Streptococcus mutans. It is filed as cell-based. Details: key: —: no activity. The settings on record: discs with 40 mM of compound in 20 μl solvent. The protocol:
as §2

The subject of assay [7] is PA01. Briefly: Diffusion discs test, PA01. It is filed as cell-based, P. aeruginosa. Also noted: key: —: no activity. The settings on record: discs with 40 mM of compound in 20 μl solvent.
The test system of assay [8] is Acinetobacter baumannii. The assay can be described thus: Diffusion discs test, Acinetobacter baumannii. It is filed as cell-based. Details: key: —: no activity. As to conditions: discs with 40 mM of compound in 20 μl solvent. The protocol: as §2
Assay [9] relates to gram-positive and gram-negative bacteria. Briefly: Antibacterial activity, overall statement (diffusion discs test). It is filed as cell-based. As to conditions: running text. The protocol: as §2
The antibacterial activities of derivatives showing QSI are outlined in Table 4. […] Similar to that idea, synthetic derivatives of furanon (product of marine algae) shown in-vivo QSI activity without antibacterial activity followed by immune response of the infected animal. Phenolic compounds decrease QS and virulence in PA01 and Chromobacterium violaceum. There is increasing number of studies, searching for compounds that targeting non-vital processes to combat bacteria.

[10] abbreviates: Table 1, coumaperine derivatives, 40 mM in ~20 μL acetonitrile dried on TLC plate, overnight, color intensity.

Regarding `CSc1ccc(/C=C/C=C/C(=O)N2CCCCC2)cc1` [CP-147, (2E,4E)-5-(4-(methylthio)phenyl)-1-(piperidin-1-yl)penta-2,4-dien-1-one], in assay [1] (setting [10]), the “Degree of QSI of CV026” value was “+”. The “QSI activity against CV026, in words” value in assay [1] (running text) is “low activity; also recorded: low QS inhibition effect”. Further, the “Degree of QSI of KYC55” value in assay [2] (setting [10]) is given as “−”. Further, the “QSI activity against KYC55, in words” value in [2] (running text) is reported as “inactivity; also recorded: does not affect QS”. In [3], the “Bacillus subtilis, diameter of growth inhibition” value is listed as “—”. In assay [4] (discs with 40 mM of compound in 20 μl solvent), the “Staphylococcus aureus, diameter of growth inhibition” value was determined as 9 mm. Also, the “Staphylococcus aureus growth inhibition, in words” value in assay [4] (running text) is reported as “inhibits Staphylococcus aureus growth”. The “Streptococcus sobrinus, diameter of growth inhibition” value in assay [5] was “—”. Besides, the “Streptococcus mutans, diameter of growth inhibition” value in [6] is “—”. In addition, the “PA01, diameter of growth inhibition” value in assay [7] is “—”. In addition, the “Acinetobacter baumannii, diameter of growth inhibition” value in [8] is listed as “—”. The “Antibacterial activity, in words” value in [9] is given as “showed antibacterial activity”.
